Measured values as given in publication PMC3476947 (Journal of medicinal chemistry, 2012).

Experiments:
[1] = system: MBHA DNA substrate (25 base-pair); test: Fluorescent intercalator displacement; type: binding; details: 1.5 μM compound, FID counterscreen
[2] = target: T1, HCV NS3 helicase (NS3h_1b(con1)) (Hepatitis C virus genotype 1b, UniProt Q9WMX2); test: biochemical
[3] = target: T1, HCV NS3 helicase (NS3h_1b(con1)); test: MBHA with RNA substrate; type: biochemical; details: data not shown

T1 sequence (Q9WMX2 1192-1657): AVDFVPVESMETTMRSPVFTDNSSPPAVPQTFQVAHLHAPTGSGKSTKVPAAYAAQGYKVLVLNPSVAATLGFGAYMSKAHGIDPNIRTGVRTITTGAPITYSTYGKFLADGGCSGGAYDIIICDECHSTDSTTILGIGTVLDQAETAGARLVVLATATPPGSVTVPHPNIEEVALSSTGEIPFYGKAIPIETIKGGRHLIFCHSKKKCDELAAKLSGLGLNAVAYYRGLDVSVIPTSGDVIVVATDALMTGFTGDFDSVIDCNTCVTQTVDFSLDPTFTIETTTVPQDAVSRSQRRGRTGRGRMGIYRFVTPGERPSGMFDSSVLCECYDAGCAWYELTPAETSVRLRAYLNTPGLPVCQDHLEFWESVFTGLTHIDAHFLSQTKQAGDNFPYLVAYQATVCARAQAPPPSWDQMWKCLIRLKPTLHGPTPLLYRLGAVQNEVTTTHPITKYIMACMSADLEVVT

effect on HCV helicase-catalyzed DNA unwinding ([2]; MBHA, up to 100 μM)	SMILES	decrease of fluorescence of DNA-bound ethidium bromide [1]	IC50 [2]	effect on HCV helicase-catalyzed RNA unwinding [3]
–	[Cl][Cd][Cl] [CdCl2]	less than 8%	–	–
–	CO[C@@H]1[C@H](O)C[C@@H](O[C@@H]2C[C@H](Oc3cc4cc5c(c(O)c4c(O)c3C)C(=O)[C@@H](O[C@H]3C[C@@H](O[C@H]4C[C@@H](O[C@H]6C[C@](C)(O)[C@@H](OC(C)=O)[C@H](C)O6)[C@H](O)[C@@H](C)O4)[C@H](O)[C@@H](C)O3)[C@H]([C@H](OC)C(=O)[C@@H](O)[C@@H](C)O)C5)O[C@H](C)[C@@H]2OC(C)=O)O[C@@H]1C [Chromomycin A3]	–	0.15 ± 0.03 µM	no effect
–	Cc1c2ccncc2c(C)c2c1[nH]c1ccccc12 [ellipticine]	less than 8%	–	–
no effect	Cc1ccc2c(c1)sc(-c1ccc(N(C)C)cc1)[n+]2C.[Cl-] [thioflavine T]	–	–	no effect
